Test results: patent US10906876B2, “Tetrahydroisoquinolines as selective NADPH oxidase 2 inhibitors” (University of Pittsburgh—Of the Commonwealth System of …, priority 2013, dated 2021)

Assays:
Bovine milk XO = target: T1, Bovine milk XO (Bos taurus, UniProt P80457); assay: Xanthine oxidase assay (Amplex Red); assay type: biochemical; settings: compounds at 25 μM and 50 μM (FIG. 4)
T1 construct: Bovine milk XO (grade 1, ammonium sulfate suspension; Sigma-Aldrich); purchased Sigma-Aldrich; host or cells: bovine milk
Method: Bovine milk XO (grade 1, ammonium sulfate suspension; Sigma-Aldrich) was first desalted using PD-10 columns (Sephadex G-25, GE Healthcare Biosciences, Piscataway, N.J.) equilibrated in PBS. XO activity was assayed by measuring H2O2 production using the Amplex® Red assay. Reaction mixture contained: 0.02 U/mL XO, 25 mM Hepes, pH 7.4, containing 0.12 M NaCl, 3 mM KCl, 1 mM MgCl2, 0.1 mM Amplex® Red, and 0.32 U/mL of horse radish peroxidase (HRP), reaction was initiated by addition of 1 mM hypoxanthine. Fluorescence was quantified over time using a Biotek Synergy 4 Hybrid Multi-Mode Microplate Reader.
Data are expressed as % of vehicle control.

Nox2 [1] = target: T2, Nox2 (Homo sapiens, UniProt P04839); assay: ROS (H2O2) generation in whole COS-Nox2 cells, Amplex Red assay; assay type: cell-based
T2 construct: expressed in transfected cells
T2 sequence (P04839 2-570 limits assumed): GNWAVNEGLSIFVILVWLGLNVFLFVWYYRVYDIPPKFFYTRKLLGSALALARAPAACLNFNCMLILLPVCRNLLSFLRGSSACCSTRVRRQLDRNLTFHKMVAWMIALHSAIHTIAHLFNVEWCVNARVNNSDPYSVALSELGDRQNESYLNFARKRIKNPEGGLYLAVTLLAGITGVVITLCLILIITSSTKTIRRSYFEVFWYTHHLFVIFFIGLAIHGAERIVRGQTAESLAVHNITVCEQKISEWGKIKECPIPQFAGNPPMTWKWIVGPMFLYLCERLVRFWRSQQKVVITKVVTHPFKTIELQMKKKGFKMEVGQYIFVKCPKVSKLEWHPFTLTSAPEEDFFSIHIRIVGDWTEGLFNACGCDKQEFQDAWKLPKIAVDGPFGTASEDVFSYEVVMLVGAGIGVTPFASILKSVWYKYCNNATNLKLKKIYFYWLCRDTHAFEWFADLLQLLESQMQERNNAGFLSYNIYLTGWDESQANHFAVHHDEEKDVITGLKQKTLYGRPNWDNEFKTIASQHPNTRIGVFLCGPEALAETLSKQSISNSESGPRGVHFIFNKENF
Source text: (§1) All cell culture reagents were obtained from Invitrogen, unless indicated. COS-22 (COS-7 cells stably expressing human p22^phox) and COS-Nox2 (a.k.a. COS-phox) cells (COS-7 cells stably expressing human p22^phox, Nox2, p47^phox and p67^phox) were kindly provided by Dr. Mary C. Dinauer (Indiana University, School of Medicine) (Price et al., Blood, 2002, 99:2653-2661). COS-22 cells were maintained in Dulbecco's Modified Eagle Medium (DMEM) with 4.5 g/L glucose, L-glutamine and sodium pyruvate containing 10% heat-inactivated fetal bovine serum (FBS), 100 units/ml penicillin and 100 μg/ml streptomycin (complete media) supplemented with 1.8 mg/ml G418 (Calbiochem/EMB Bioscience, Gibbstown, N.J.). COS-Nox2 cells were maintained in complete media supplemented with 1.8 mg/mL G418, 1 μg/mL puromycin (Sigma, St Louis, Mo.) and 0.2 mg/mL hygromycin B (Invitrogen, Carlsbad, Calif.). HEK-Nox5 cells were kindly provided by Dr. David Fulton (Georgia Health Sciences University) and maintained in complete media.
H2O2 production was quantified in intact COS-Nox4 cells by Amplex® Red. Briefly, COS-Nox4 cells (5×10^4 cells/ml) were re-plated into 384-well plate in assay buffer (25 mM Hepes, pH 7.4, containing 0.12 M NaCl, 3 mM KCl, 1 mM MgCl2). The cells were incubated in the presence or absence of drugs at 37° C. in assay buffer supplemented with 0.1 mM Amplex® Red, and 0.32 U/ml of horse radish peroxidase (HRP) for 15 min. Fluorescence measurements were made using a Biotek Synergy 4 Hybrid Multi-Mode Microplate Reader with a 530/25-excitation and a 590/35-emission filter. The reaction was monitored at 37° C. for 1 h. A standard curve of known H2O2 concentrations was included on each plate. Nox4 activity was obtained by calculating the rate of H2O2 production as RFU/min and then subtracting the equivalent value given by non-transfected COS-22 cells. Similarly, H2O2 production by Nox2 cells was also measured by Amplex® Red as described above but in the presence of 150 U/mL of SOD and the reaction was initiated by addition of 5 μM PMA. The rate of H2O2 production in this case was calculated as RFU/min after the subtraction of the equivalent value given by non-stimulated cells. Data are expressed as % of vehicle control.
(§2) All data are expressed as means±SEM. IC50 values were determined using the GraphPad Prism software (GraphPad Software, San Diego, Calif.) for non-linear regression three-parameters, with constrain values of 100 and 0 for top and bottom, respectively, and assumes a Hill slope of 1.

Nox2 [2] = target: T2, Nox2; assay: ROS (superoxide) generation in whole COS-Nox2 cells, L-012 chemiluminescence; assay type: cell-based; settings: whole COS-Nox2 cells stimulated with 5 μM PMA
Source text: as §1
COS-Nox2, COS-Nox1/NOXO1/NOXA1, HEK-Nox5 and COS-22 cells were re-plated in OPTIMEM into 384-well white micro-plates (Greiner-Bio One GmbH, Germany) at a density of 2.5×10^3 cells/well for COS-Nox2 and 5×10^4 cells/well for all others. The cells were incubated at 37° C. in PBS containing […] L-012 for 10 min. Reaction was initiated by addition of 5 μM PMA in the case of Nox2 or 1 μM PMA/0.1 μM Ionomycin in the case of Nox5. Since Nox1 was constitutively active, Nox1-derived O2^•− was assessed by comparison to non-transfected cells (Cos22). Luminescence was quantified over time using a Biotek Synergy 4 Hybrid Multi-Mode Microplate Reader. The specificity of L-012 for O2^•− was confirmed by the addition of SOD (150 U/mL).
as §2
Heterologous Nox1, 2, 4, and 5 cell systems were used as a testing paradigm to identify a probe molecule that inhibits Nox2 selectively over Nox1, 4, and 5. An acceptable probe would also show a lack of activity against XO, which also produces ROS. The latter screen would serve two purposes: (1) to eliminate drugs that inhibit an oxidase of distinct composition; and (2) to preclude agents that directly scavenge ROS. A cell-based primary assay using stable Nox2-transfected COS cells (Price et al., Blood 2002, 99:2653-2661) with L-012 chemiluminescence (Daiber et al., Free Radic. Biol. Med. 2004, 36:101-111) was used as a detection system for O2^•−-generation.

T1 sequence (P80457 whole entry): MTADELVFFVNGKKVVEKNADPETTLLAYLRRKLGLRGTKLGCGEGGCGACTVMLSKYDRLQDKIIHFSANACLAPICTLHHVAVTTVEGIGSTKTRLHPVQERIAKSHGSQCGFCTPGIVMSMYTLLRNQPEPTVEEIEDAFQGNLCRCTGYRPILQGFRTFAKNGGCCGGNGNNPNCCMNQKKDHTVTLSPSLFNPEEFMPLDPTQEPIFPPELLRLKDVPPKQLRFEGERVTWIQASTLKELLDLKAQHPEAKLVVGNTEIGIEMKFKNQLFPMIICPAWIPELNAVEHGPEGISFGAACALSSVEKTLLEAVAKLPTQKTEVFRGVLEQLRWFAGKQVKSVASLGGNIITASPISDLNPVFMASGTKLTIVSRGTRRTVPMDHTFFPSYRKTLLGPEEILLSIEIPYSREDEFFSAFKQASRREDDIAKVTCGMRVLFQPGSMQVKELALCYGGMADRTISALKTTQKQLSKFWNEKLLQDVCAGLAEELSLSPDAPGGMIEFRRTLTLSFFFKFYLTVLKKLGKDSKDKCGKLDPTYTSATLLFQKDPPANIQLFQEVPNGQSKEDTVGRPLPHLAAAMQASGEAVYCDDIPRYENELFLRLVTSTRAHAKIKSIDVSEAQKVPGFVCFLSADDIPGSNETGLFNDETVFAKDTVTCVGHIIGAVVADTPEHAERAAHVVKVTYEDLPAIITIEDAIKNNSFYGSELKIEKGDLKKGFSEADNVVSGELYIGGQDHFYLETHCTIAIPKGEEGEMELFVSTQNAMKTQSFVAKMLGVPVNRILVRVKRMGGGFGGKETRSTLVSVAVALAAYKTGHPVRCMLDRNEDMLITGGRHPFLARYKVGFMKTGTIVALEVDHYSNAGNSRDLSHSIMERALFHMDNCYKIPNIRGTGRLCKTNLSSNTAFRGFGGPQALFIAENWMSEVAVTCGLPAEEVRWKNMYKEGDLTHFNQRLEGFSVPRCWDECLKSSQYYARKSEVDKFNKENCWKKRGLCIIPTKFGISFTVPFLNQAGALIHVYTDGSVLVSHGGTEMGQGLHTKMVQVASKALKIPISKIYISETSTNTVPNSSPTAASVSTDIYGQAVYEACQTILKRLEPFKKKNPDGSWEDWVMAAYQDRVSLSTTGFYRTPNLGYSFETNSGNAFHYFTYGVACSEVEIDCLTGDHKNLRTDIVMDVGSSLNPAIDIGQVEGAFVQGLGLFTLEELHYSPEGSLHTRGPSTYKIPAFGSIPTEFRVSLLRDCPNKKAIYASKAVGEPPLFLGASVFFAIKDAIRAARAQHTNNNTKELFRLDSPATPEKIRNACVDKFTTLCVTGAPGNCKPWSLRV

SMILES | Effect on ROS production by xanthine oxidase (Bovine milk XO) | Nox2 inhibitory activity (Nox2 [1]; Table 2) | IC50 (Nox2 [1]; whole COS-Nox2 cells stimulated with 5 μM PMA, Amplex Red) | IC50 (Nox2 [2])
c1ccc2c(c1)[I+]c1ccccc1-2 [DPI, reference compound] | complete inhibition |  |  | 
C=C(C)CC1NC2CC(C)(C)C1c1c(-c3cccnc3)cccc12 (racemic) [Compound 12d, (±)-(1S,4R,9S)-3,3-Dimethyl-9-(2-methylallyl)-5-(pyridin-3-yl)-1,2,3,4-tetrahydro-1,4-(epimino-methano)naphthalene] |  | inactive | > 100 µM | > 100 µM
